Reference: US20250367251A1, “SKELETON PROTECTION METHOD USING PEPTIDE” (Pell Bio-Med Technology Co., Ltd., priority 2024, published 2025)
Non-standard residues stand in square brackets, D forms with d. Residues, ends and D or L forms follow the SMILES beside them. pGlu = O=C1CC[C@@H](C(=O)O)N1

Experiments:
[1] = tested on: adjuvant-induced arthritis (AIA) model in C57BL/6 mice; test: Adjuvant-induced arthritis (AIA) model, micro-CT of calcaneus bone (cortical surface, bone mineral density); type: in vivo
Source text: Scientific reports, 7(1), 8870. […] Said mice were sacrificed on Day 45.
Each mouse was anesthetized (2.5% isoflurane, 1.0 L/min air) and the anesthetic gas was maintained during the scanning. The mouse was subjected to lay on one side on the carbon fiber half-tube bed while kept anesthetized in the micro-CT scanner (Skyscan 1076), and the right hindpaw was positioned on a cylindrical shape styrofoam holder. The mouse's paw was immobilized at the scanning midline of the scanner to eliminate any undesirable movement of the paw.
Settings for the micro-CT scanner (SkyScan-1076; Bruker micro CT, Belgium) were as follows: isotropic voxel size: 9 μm, tube voltage: 49 kV, current: 167 μA, Al filter: 0.5 mm, and 180° scan with 0.6° rotation step […] with frame averaging of 3. Subsequently, micro CT projections were back projection-reconstructed using the NRecon software (NReconServer64 bit, Bruker, MicroCT, Belgium) and volume-rendered and visualized in 3D with the CTVox software (Bruker, MicroCT, Belgium). The images of calcaneus bone were segmented and analyzed using the CTAn software (Bruker, MicroCT, Belgium).
GraphPad Prism 9.3.1 (GraphPad Software, USA) was used for statistical analyses and graphing. Data are presented as mean±standard deviation. The level of statistical significance was set at 5% (P<0.05) for all analyses. Data analysis of the indexes derived from the μCT images of calcaneus bone of mice was carried out, for example, One-way RM ANOVA (One-way Repeated Measures Analysis of Variance) with Tukey's post hoc test was used for data analysis of bone mineral density.
The observation time window of μCT scanning was set before AIA induction (Week 0), at the end of induction (Week 4), and after 1 or 2 weeks' treatment (i.e., Week 5 and Week 6). According to FIG. 1A and FIG. 1B, obviously, the surface integrity of the calcaneus bone was disturbed at Week 4 (the end of induction and prior to treatment), manifested as unevenness of the cortical bone (dashed line circle, Week 4 vs Week 0).

[2] = Preliminary safety profile in AIA mice (body weight changes, observation); conditions: for body weight changes: oral once daily, after 1- or 2-week treatment (Week 5 or Week 6), compared with Week 4 or vehicle group, P>0.05
Protocol: This animal study was carried out according to the adjuvant-induced arthritis (AIA) model designed by Academia Sinica, Taipei, Taiwan. Specifically, arthritis induction was performed according to the method described in Gauldie, S. D., McQueen, D. S., Clarke, C. […] In short, this animal study comprised thirty C57BL/6 mice purchased from National Laboratory Animal Center, Taiwan, which were 8 weeks old with a body weight of about 20 to 25 grams. By using a 30-gauge needle mounted on a 100 μl Hamilton syringe, said mice were respectively injected with 5 μg Complete Freund's Adjuvant (CFA) (F5881, Sigma, USA) in the right ankle joint once a week for consecutive 4 times, wherein the first injection was carried out at week 0 (day 0), and said mice were anesthetized and maintained with 2% isoflurane during the injection. The AIA model can induce long-term inflammation and swelling in unilateral anterior ankle joints in C57BL/6 mice, thereby simulating the clinical long-term chronic pain of patients with rheumatoid arthritis.
After CFA induction, said mice were weekly weighted and scored with rheumatoid arthritis score estimation (data not shown) according to Hsieh, W. S., et al. (2017). […] The mice were assigned to 5 groups: (1) vehicle group, (2) P1 group (provided with 1 mg/kg/day peptide of SEQ ID NO: 1), (3) P3 group (provided with 3 mg/kg/day peptide of SEQ ID NO: 1), (4) P10 group (provided with 10 mg/kg/day peptide of SEQ ID NO: 1), and (5) T group (provided with 12.4 mg/kg/day tofacitinib). Said animal grouping was based on the rheumatoid arthritis scores by a random sampling mode. The drug administration from Week 4 (Day 28) to Week 6 (Day 42) was as follows: said mice received once-daily oral dosing (gavage) of 5 μL/g of body weight (bw) of a solution comprising: (1) the peptide of SEQ ID NO: 1 (1 mg/kg bw, 3 mg/kg bw or 10 mg/kg bw, dissolved in water) in P1, P3 and P10 group, respectively, (2) tofacitinib (12.4 mg/kg bw, dissolved with 0.5% carboxymethylcellulose aqueous solution) in T group, and (3) water in vehicle group. Said mice were sacrificed on Day 45. […]

[3] = tested on: SW982 synoviocytes; test: Cell viability test (CCK-8) of SW982 synoviocytes; type: cell-based
Protocol: Owing to the restricted lifespan of primary rheumatoid arthritis fibroblast-like synoviocytes (RA-FLS), the fibroblast-like synoviocytes (FLS) cell line SW982 synoviocytes (hereinafter referred to as SW982 cells) are well accepted as a useful in vitro model for studying the pathogenesis of RA. In short, SW982 cells were seeded in a 96-well plate at a cell density of 6,000 cells per well. After the cells were treated in the following groups, the effect of each treatment group on the viability of SW982 cells was tested by means of the cell proliferation detection kit (cell counting kit-8, CCK8; Elabscience, Catalog No: E-CK-A361) according to the manufacturer's manual. Said treatment groups were as follows: (1) Different concentrations of the peptide of SEQ ID NO: 1: SW982 cells were treated with the L15 culture medium containing 10^−6, 10^−7, 10^−8, 10^−9 μM of the peptide of SEQ ID NO: 1 for 24 hours; (2) IL-1β stimulation group: SW982 cells were stimulated with the culture medium containing 1 ng/mL IL-1β for 24 hours to simulate the inflammatory synoviocytes of rheumatoid arthritis; (3) Co-treatment group: SW982 cells were treated with culture medium containing 10^−9 μM of the peptide of SEQ ID NO: 1 and 1 ng/mL of IL-1β for 72 hours. The SW982 cells in said treatment groups were all cultured in a carbon dioxide-free environment. In addition, SW982 cells were simply cultured in L15 medium for 24 hours, as the control group. This test uses 2-(2-methoxy-4-nitrophenyl)-3-(4-nitrophenyl)-5-(2,4-disulfophenyl)-2H-tetrazolium sodium salt (WST-8) from CCK-8 kit to react with the dehydrogenase in viable cells, so that the color of all treatment groups containing WST-8 turned from pink to orange. By detecting the absorbance value at 450 nm, the activity of dehydrogenase was determined to calculate the number of viable cells.

[4] = tested on: SW982 cells; test: SW982 cell migration measurement (wound healing experiment); type: cell-based; conditions: 10^−7 to 10^−5 μM, 24 h
Source text: It is known that fibroblast-like synoviocytes secrete inflammatory cytokines, chemokines, and matrix metalloproteinases (MMPs) and induce cell migration and invasion to damage joints and cartilage. We next examined the effect of the peptide of SEQ ID NO: 1 on SW982 cell migration through a conventional wound healing experiment. Specifically, a Culture-Insert 2 Well (ibidi) in which two cell culture reservoirs were separated by a 500 μm wall was placed on a cell culture plate surface. Both reservoirs were filled with cells suspension containing L15 culture medium and 4×10^4 SW982 cells to allow cell growth in the designated areas. After appropriate cell attachment of all SW982 cells, the Culture-Insert 2 Well was removed to create a cell-free gap of approximately 500 μm. The cell monolayer was washed with PBS buffer to remove detached cells and debris. The SW982 cells were incubated with the peptide of SEQ ID NO: 1 (10^−5, 10^−6, 10^−7 μM) in L15 culture medium or with L15 culture medium only (as control group) for 24 h in a carbon dioxide-free environment. By using direct microscopic visualization, a reference point at the bottom was created in each field, and the image of the remaining cell-free area in the identical field shot immediately after 24 h-treatment of the peptide of SEQ ID NO: 1 was measured to analyze cell migration and wound healing rates. […]

[5] = tested on: RAW264.7 cells; test: Bone resorption assay (RANKL-induced, CaP-coated plate pit area); type: cell-based; conditions: 100 μM with 100 ng/ml RANKL, 7 days, p<0.001 vs RANKL group
Protocol: This test used RANKL (receptor activator of nuclear factor kappa-B ligand) as an inducer of osteoclastic differentiation to detect whether the peptide of SEQ ID NO: 1 could inhibit osteoclast resorptive function induced by RANKL in vitro, and comprised three groups: control group, RANKL group and treatment group.
First, RAW264.7 cells were seeded in a calcium phosphate (CaP)-coated 96-well with a density of 2×10^3 cells per well. RAW264.7 is a macrophage cell line, and RAW264.7 cells can differentiate into an osteoclast. The cells of all groups were cultivated for 7 days according to the manufacturer's instructions of Bone Resorption assay kit (Cosmo Bio). The differences between control group, RANKL group and treatment group were as follows: • (1) Control group: neither RANKL nor the peptide of SEQ ID NO: 1 was provided to RAW264.7 cells during a 7-day incubation period. • (2) RANKL group: RANKL in a concentration of 100 ng/ml was provided to RAW264.7 cells at Day 1 and incubated for 7 days. • (3) Treatment group: RANKL in a concentration of 100 ng/ml and the peptide of SEQ ID NO: 1 in a concentration of 100 μM were simultaneously provided to RAW264.7 cells at Day 1 and incubated for 7 days.
After the 7-day incubation period, all wells of all groups were washed with 0.2 ml to 0.5 ml of 5% sodium hypochlorite to remove the cells adhered to the surface. […]

Row | Compound | bone mineral density (BMD) of calcaneus bone ([1]; 12.4 mg/kg/day oral, 1- or 2-week treatment, Week 5/6 vs Week 4, P>0.05) | bone contour / cortical surface of calcaneus bone (micro-CT) ([1]; 12.4 mg/kg/day oral, Week 6 vs Week 4) | body weight changes [2] | proliferation of SW982 cells ([3]; 1 ng/mL, 24 h) | bone contour / cortical surface of calcaneus bone (micro-CT) ([1]; 1 mg/kg oral once daily, Week 4 to Week 6) | bone mineral density (BMD) of calcaneus bone ([1]; 1 mg/kg oral, 1- or 2-week treatment, Week 5/6 vs Week 4, P>0.05) | bone contour / cortical surface of calcaneus bone (micro-CT) ([1]; 3 mg/kg oral once daily, Week 4 to Week 6) | bone mineral density (BMD) of calcaneus bone ([1]; 3 mg/kg oral, 1- or 2-week treatment, Week 5/6 vs Week 4, P>0.05) | bone contour / cortical surface of calcaneus bone (micro-CT) ([1]; 10 mg/kg oral once daily for 2 weeks, Week 6 vs Week 4) | bone mineral density (BMD) of calcaneus bone ([1]; 10 mg/kg oral, after 1-week treatment) | bone mineral density (BMD) of calcaneus bone ([1]; 10 mg/kg oral, after 2 week treatment, Week 6 vs Week 4, P<0.05) | IL-1β-induced proliferation of SW982 cells ([3]; 10^−9 μM with 1 ng/mL IL-1β, 72 hours) | proliferation of SW982 cells ([3]; 10^−9 to 10^−6 μM, 24 hours) | lateral migration of SW982 cells [4] | pit area (calcium phosphate resorption) relative to RANKL group (one-fold) [5] | observation of treated mice (signs of toxicity) ([2]; oral once daily Week 4 to Week 6)
1 | C[C@@H]1CCN(C(=O)CC#N)C[C@@H]1N(C)c1ncnc2[nH]ccc12 [Tofacitinib, reference compound] | neither 1- nor 2-week treatment of Tofacitinib was able to revert the BMD decrement | did not reduce the extent of surface roughness or the distortion of the bone contour | no significant difference in body weight changes | – | – | – | – | – | – | – | – | – | – | – | – | –
2 | IL-1β: cytokine used to stimulate SW982 cells to simulate the inflammatory synoviocytes of rheumatoid arthritis [reference compound] | – | – | – | dramatically enhanced the proliferation of SW982 cells | – | – | – | – | – | – | – | – | – | – | – | –
3 | CC(C)[C@H](NC(=O)[C@H](C)NC(=O)[C@@H](NC(=O)[C@H](CCC(=O)O)NC(=O)[C@@H]1CCC(=O)N1)[C@@H](C)O)C(=O)N[C@@H](CO)C(=O)N[C@@H](CO)C(=O)N[C@@H](Cc1c[nH]cn1)C(=O)N[C@@H](CCC(=O)O)C(=O)N[C@@H](CCC(N)=O)C(=O)N[C@@H](CC(=O)O)C(=O)O [peptide of SEQ ID NO: 1, Glp Glu Thr Ala Val Ser Ser His Glu Gln Asp] ([pGlu]ETAVSSHEQD-OH) | – | – | no significant difference in body weight changes | – | no benefits in restoring the bone contour | no significant changes in BMD | no benefits in restoring the bone contour | no significant changes in BMD | much smoother cortical surfaces with fewer spiky projections of calcaneus bone | no increase in BMD | significant increases in BMD | significantly suppress the IL-1β-induced proliferation of SW982 cells | effectively inhibit the proliferation of SW982 cells | significantly reduced the lateral migration of SW982 cells | about 0.5 fold | no signs of irritability, loss of vigor, or any skin or hair changes
